From patent publication US20200239530A1, “COMPOUNDS AND METHODS OF MODULATING PROTEIN DEGRADATION” (Vividion Therapeutics, Inc., priority 2017, published 2020) come the findings set out here.

Common to all, as to assay: Competitive cysteine profiling, probe competition (Table 2B)
Holding throughout (assay type): binding

For one assay, the target named is T1, O95376 (Homo sapiens, UniProt O95376).
T1 construct: Cells were resuspended in cold PBS on ice and sonicated with a probe sonicator to achieve lysis; endogenous in cells
T1 sequence (O95376 1-493): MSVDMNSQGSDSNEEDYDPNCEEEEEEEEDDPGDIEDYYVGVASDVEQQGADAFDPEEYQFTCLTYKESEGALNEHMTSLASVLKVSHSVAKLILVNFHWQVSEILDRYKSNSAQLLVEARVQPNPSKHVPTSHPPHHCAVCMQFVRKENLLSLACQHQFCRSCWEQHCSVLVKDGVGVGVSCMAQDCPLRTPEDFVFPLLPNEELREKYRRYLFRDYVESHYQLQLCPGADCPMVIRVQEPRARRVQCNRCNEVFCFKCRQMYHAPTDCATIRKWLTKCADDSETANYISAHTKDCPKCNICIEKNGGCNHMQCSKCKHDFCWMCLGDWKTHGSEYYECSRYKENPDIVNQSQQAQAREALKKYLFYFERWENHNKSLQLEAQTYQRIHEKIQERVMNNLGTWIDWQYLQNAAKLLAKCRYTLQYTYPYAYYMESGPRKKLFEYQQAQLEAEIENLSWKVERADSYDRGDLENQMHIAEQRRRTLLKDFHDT
Particulars: 500 uM. The source says:
(§1) The following 96-well sample prep protocol was used for sample preparation.

For the next assay, the target named is T2, Q92624 (Homo sapiens, UniProt Q92624).
T2 construct: Cells were resuspended in cold PBS on ice and sonicated with a probe sonicator to achieve lysis; endogenous in cells
T2 sequence (Q92624 1-585): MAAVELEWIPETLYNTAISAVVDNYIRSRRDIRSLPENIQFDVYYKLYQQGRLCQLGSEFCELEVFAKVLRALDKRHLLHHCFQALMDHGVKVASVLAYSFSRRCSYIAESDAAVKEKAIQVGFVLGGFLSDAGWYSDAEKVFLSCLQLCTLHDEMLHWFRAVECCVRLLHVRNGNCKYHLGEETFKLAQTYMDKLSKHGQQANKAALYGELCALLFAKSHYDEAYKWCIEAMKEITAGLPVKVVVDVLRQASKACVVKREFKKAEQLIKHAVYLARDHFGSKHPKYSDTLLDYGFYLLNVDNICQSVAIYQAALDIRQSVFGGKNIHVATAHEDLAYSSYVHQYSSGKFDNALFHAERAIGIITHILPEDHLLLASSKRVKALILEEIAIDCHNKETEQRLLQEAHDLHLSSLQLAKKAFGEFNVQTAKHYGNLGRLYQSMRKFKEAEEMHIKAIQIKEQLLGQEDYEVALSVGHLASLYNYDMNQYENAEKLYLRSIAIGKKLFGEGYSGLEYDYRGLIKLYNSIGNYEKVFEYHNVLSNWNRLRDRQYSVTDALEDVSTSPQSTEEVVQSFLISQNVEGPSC
Description: as §1

The target of the next assay is T3, Q96C12 (Homo sapiens, UniProt Q96C12).
T3 construct: Cells were resuspended in cold PBS on ice and sonicated with a probe sonicator to achieve lysis; endogenous in cells
T3 sequence (Q96C12 1-935): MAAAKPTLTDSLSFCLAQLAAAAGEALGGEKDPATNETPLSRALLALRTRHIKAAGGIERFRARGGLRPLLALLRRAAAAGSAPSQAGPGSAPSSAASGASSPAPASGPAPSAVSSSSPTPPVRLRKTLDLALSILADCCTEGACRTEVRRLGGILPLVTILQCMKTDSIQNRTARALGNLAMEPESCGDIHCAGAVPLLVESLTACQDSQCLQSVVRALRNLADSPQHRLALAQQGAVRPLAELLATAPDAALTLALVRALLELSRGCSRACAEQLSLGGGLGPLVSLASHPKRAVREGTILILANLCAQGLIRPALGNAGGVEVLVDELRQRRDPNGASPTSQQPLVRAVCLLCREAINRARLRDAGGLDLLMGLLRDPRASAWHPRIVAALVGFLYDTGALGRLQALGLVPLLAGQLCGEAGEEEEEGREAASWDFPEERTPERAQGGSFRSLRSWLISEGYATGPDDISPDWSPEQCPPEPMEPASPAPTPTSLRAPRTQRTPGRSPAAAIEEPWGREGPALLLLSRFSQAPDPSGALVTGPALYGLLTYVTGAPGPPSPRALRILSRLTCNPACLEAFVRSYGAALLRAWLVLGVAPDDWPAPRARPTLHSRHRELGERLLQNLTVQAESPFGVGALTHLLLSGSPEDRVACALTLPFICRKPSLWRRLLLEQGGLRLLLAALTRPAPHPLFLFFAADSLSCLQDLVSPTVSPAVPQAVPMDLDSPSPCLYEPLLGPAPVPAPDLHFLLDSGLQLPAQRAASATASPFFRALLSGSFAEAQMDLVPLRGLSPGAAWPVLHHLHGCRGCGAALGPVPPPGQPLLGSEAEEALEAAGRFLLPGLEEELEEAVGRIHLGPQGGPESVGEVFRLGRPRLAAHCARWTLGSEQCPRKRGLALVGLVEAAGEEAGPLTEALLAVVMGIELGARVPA
Description: as §1

The target of the next assay is T4, Q96P09 (Homo sapiens, UniProt Q96P09).
T4 construct: 200 μL of lysate containing 5 mg/ml proteome was treated with 2 μL of 100× compound stock; endogenous in cells
T4 sequence (Q96P09 1-236): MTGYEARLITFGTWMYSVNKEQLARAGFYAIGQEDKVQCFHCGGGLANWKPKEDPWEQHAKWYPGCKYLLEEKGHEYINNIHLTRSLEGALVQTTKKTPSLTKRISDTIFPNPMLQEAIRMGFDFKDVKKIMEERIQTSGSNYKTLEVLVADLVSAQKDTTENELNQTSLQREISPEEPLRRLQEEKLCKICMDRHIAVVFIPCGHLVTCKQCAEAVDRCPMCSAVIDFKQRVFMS
Description: as §1

Another assay deals with T5, Q9NYG5 (Homo sapiens, UniProt Q9NYG5).
T5 construct: Cells were resuspended in cold PBS on ice and sonicated with a probe sonicator to achieve lysis; endogenous in cells
T5 sequence (Q9NYG5 whole entry): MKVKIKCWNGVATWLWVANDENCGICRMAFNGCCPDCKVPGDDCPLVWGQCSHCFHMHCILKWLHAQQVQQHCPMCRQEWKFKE
Description: as §1

For another assay, the target named is T6, Q9UJX5 (Homo sapiens, UniProt Q9UJX5).
T6 construct: Cells were resuspended in cold PBS on ice and sonicated with a probe sonicator to achieve lysis; endogenous in cells
T6 sequence (Q9UJX5 whole entry): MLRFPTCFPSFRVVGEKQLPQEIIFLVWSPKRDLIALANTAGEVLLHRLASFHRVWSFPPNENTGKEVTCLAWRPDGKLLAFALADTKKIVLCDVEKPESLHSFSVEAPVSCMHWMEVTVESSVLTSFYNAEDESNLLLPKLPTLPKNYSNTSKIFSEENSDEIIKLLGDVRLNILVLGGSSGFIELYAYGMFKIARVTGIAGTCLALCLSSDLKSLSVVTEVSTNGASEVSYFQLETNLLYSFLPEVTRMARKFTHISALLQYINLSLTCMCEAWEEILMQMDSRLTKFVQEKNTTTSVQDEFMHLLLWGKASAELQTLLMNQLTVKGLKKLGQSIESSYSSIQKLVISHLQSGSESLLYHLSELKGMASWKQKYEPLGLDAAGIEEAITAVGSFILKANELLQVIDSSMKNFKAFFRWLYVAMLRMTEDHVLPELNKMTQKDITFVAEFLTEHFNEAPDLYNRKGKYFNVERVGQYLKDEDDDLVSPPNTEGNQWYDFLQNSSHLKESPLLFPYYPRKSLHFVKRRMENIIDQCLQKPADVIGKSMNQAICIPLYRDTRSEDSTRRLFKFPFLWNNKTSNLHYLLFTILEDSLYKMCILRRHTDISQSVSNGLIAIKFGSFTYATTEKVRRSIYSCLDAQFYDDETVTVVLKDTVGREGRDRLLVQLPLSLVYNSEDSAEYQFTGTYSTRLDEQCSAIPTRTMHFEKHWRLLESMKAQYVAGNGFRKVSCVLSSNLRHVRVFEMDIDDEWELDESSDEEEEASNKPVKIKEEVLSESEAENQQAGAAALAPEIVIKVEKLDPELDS
Description: as §1

The target of a further assay is T7, Q9UKV5 (Homo sapiens, UniProt Q9UKV5).
T7 construct: Cells were resuspended in cold PBS on ice and sonicated with a probe sonicator to achieve lysis; endogenous in cells
T7 sequence (Q9UKV5 whole entry): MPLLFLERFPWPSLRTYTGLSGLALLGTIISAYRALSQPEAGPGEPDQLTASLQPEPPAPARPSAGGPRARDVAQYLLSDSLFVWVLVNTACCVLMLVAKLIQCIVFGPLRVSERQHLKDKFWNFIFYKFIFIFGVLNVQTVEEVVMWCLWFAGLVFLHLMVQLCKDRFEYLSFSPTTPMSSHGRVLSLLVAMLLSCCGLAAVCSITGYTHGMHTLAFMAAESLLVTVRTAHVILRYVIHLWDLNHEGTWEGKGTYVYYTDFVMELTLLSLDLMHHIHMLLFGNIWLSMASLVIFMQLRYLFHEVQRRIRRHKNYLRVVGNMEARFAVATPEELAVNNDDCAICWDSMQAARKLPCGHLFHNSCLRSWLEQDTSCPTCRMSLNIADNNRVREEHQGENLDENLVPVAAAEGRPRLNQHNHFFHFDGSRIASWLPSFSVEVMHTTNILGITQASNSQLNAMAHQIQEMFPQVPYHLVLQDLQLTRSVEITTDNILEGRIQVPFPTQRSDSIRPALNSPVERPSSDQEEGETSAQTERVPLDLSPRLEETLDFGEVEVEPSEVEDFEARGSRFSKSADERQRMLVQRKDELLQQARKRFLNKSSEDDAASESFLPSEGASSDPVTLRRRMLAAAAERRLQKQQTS
Description: as §1

[1] abbreviates: 500 uM, read-out: KB02_500 uM_percent_inhibition.
[2] abbreviates: read-out: KB02_100 uM_percent_inhibition.
[3] abbreviates: 100 uM, read-out: KB05_100 uM_percent_inhibition.
The mark [4] stands for this setting: read-out: KB05_100 uM_percent_inhibition.
Where [5] appears, read: 500 uM, read-out: KB05_500 uM_percent_inhibition.

Where two headings read alike, the source gives them in different places.

Turning to `O=C(CCl)Nc1cc(C(F)(F)F)cc(C(F)(F)F)c1` [KBO3], the “KB03_500 uM_percent_inhibition” value at O95376 came out at 100%; at Q96P09 (500 uM), 21%; at Q9UJX5 (500 uM), 29%; at Q9UKV5 (500 uM), 48%. Also, the results for the “KB03_100 uM_percent_inhibition” value on Q92624 (100 uM), on Q96C12 (100 uM) and on Q9NYG5 (100 uM) were 56%, 40% and 51%, respectively.

For `COc1ccc2c(c1)CCCN2C(=O)CCl` [KB02], the “KB02_500 uM_percent_inhibition” value on O95376 amounted to 89%. For the same compound, the inhibition at 500 µM was found to be 100% on Q92624 (setting [1]), 38% at Q96P09 (read-out: KB02_500 uM_percent_inhibition), 7% at Q9UJX5 (setting [1]) and 19% on Q9UKV5 (setting [1]). Besides, the values for the inhibition at 100 µM at Q96C12 (setting [2]), on Q9NYG5 (setting [2]) and on Q9UKV5 (setting [2]) were 62%, 41% and 4%, respectively.

Turning to `C=CC(=O)N(c1ccccc1)c1ccc(Br)cc1` [KB05], the “KB05_500 uM_percent_inhibition” value at O95376 worked out at 79%. Further, the inhibition at 100 µM at Q92624 (setting [3]) was determined as 34%; at Q96C12 (setting [4]) it was 23%; at Q9NYG5 (setting [4]), 27%; at Q9UJX5 (setting [3]) it was 6%; at Q9UKV5 (setting [4]), 5%. The inhibition at 500 µM was determined as 45% on Q96P09 (read-out: KB05_500 uM_percent_inhibition), 20% at Q9UJX5 (setting [5]) and 18% at Q9UKV5 (setting [5]).
